Measured values published in ChEMBL document CHEMBL5154726, “Identification of triazolopyridine derivatives as a new class of AhR agonists and evaluation of anti-psoriasis effect in a mouse model” (Eur J Med Chem, 2022).
≈ marks a conversion by molar mass, not a printed value.

Target: T1, Aryl hydrocarbon receptor (Homo sapiens, UniProt P35869)
T1 sequence (P35869 whole entry): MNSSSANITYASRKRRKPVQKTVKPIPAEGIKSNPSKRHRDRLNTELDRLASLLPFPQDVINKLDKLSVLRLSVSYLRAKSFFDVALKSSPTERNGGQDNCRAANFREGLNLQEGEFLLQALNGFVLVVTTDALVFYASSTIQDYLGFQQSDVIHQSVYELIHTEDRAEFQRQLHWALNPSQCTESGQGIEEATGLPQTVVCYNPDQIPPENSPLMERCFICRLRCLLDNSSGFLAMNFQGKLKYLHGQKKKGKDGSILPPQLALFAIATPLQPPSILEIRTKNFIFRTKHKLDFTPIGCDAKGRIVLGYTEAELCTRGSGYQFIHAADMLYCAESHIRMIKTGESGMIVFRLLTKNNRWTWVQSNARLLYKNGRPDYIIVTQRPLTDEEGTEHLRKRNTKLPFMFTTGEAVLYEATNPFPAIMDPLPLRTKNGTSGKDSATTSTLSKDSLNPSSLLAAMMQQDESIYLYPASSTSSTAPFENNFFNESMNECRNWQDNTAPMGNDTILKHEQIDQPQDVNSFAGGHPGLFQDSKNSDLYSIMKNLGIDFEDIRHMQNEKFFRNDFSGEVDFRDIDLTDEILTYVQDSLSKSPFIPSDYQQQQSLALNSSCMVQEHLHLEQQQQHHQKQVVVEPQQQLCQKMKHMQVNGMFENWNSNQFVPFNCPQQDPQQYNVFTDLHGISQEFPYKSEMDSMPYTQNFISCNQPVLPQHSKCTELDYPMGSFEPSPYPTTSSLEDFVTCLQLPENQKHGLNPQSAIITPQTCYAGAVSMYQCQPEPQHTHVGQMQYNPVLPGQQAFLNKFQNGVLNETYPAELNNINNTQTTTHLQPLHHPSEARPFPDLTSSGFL
Experiment: Agonist activity at AhR in human recombinant HepG2-Lucia AhR cell incubated for 24 hrs by luciferase reporter gene assay
Type: cell-based
Conditions: not given

Point of comparison: Fc1ccc2nc(-c3ccc(Br)cc3)nn2c1, EC50 658 nM. Against it:
- Brc1ccc2nc(-c3ccccc3Br)nn2c1 — 3.7-fold higher, 2430 nM
- [O-][n+]1c(-c2ccc(Br)cc2)nc2ccccn21 — 3.8-fold higher, 2500 nM
- Brc1ccc(-c2nc3cc(Br)ccn3n2)cc1 — within 1.5-fold, 625 nM
- [O-][n+]1c(-c2ccc(Br)cc2)nc2cc(Br)ccn21 — 11-fold lower, 62 nM
- [O-][n+]1c(-c2ccc(Br)cc2)nc2ccc(C(F)(F)F)cn21 — within 1.5-fold, 759 nM
- [O-][n+]1c(-c2ccc(Cl)cc2)nc2ccccn21 — 5.1-fold higher, 3330 nM
- Clc1ccc2nc(-c3ccc(Br)cc3)nn2c1 — 4.2-fold lower, 156 nM
- Brc1cccc(-c2nc3ccc(Br)cn3n2)c1 — 69-fold lower, 9.6 nM
- N#Cc1ccc2nc(-c3ccc(Br)cc3)[n+]([O-])n2c1 — 8.5-fold lower, 77 nM
- [O-][n+]1c(-c2ccc(Br)cc2)nc2cccc(Br)n21 — 3.2-fold lower, 205 nM
- [O-][n+]1c(-c2ccc(Br)cc2)nc2ccc(Cl)cn21 — 1900-fold lower, 0.34 nM
- [O-][n+]1c(-c2ccc3ccccc3c2)nc2ccccn21 — higher, > 10000 nM
- Cc1ccc2nc(-c3ccc(Br)cc3)[n+]([O-])n2c1 — within 1.5-fold, 842 nM
- [O-][n+]1c(-c2ccc(Br)cc2)nc2c(Br)cccn21 — 1.8-fold lower, 374 nM
- COC(=O)c1ccc(-c2nc3ccccn3[n+]2[O-])cc1 — higher, > 10000 nM
- [O-][n+]1c(-c2ccc(Br)cc2)nc2ccc(F)cn21 — 1.7-fold higher, 1090 nM
- [O-][n+]1c(-c2cccnc2)nc2ccccn21 — higher, > 10000 nM
- [O-][n+]1c(-c2ccncc2)nc2ccccn21 — 7.1-fold higher, 4660 nM
- Brc1ccc(-c2nc3cccc(Br)n3n2)cc1 — within 1.5-fold, 625 nM
- Brc1ccc(-c2nc3c(Br)cccn3n2)cc1 — 3.8-fold lower, 172 nM
- [O-][n+]1c(-c2ccc(Br)cc2)nc2ccc(Br)cn21 — 2400-fold lower, 0.27 nM
- [O-][n+]1c(-c2ccc(F)cc2)nc2ccccn21 — higher, > 10000 nM
- [O-][n+]1c(-c2ccc(-c3ccc(Cl)cc3)o2)nc2ccccn21 — higher, > 10000 nM
- FC(F)(F)c1ccc(-c2nc3ccc(Br)cn3n2)cc1 — 1500-fold lower, 0.44 nM
- Cc1ccc2nc(-c3ccc(Br)cc3)nn2c1 — higher, > 10000 nM
- N#Cc1ccc2nc(-c3ccc(Br)cc3)nn2c1 — 29-fold lower, 23 nM
- Clc1ccc(-c2nc3ccc(Br)cn3n2)cc1 — 790-fold lower, 0.83 nM
- [O-][n+]1c(-c2ccc(Br)cc2)nc2cc(F)ccn21 — 7.9-fold lower, 83 nM
- Fc1ccc(-c2nc3ccc(Br)cn3n2)cc1 — 1.8-fold higher, 1190 nM
- Brc1ccc(-c2nc3cc4ccccc4cn3n2)cc1 — higher, > 10000 nM
- Cc1ccc(-c2nc3ccc(Br)cn3n2)cc1 — 2.9-fold higher, 1890 nM
- Brc1ccc(-c2nc3ccc(-c4ccccc4)cn3n2)cc1 — higher, > 10000 nM
- [O-][n+]1c(-c2ccc(Br)cc2)nc2cc(Cl)ccn21 — 2.4-fold lower, 271 nM
- Brc1ccc2nc(-c3ccccc3)nn2c1 — higher, > 10000 nM
- COc1ccc(-c2nc3ccccn3[n+]2[O-])cc1 — higher, > 10000 nM
- [O-][n+]1c(-c2ccc(Br)nc2)nc2ccccn21 — higher, > 10000 nM

Test system: not listed separately
Experiment: Apparent permeability in MDCK cells at 50 uM incubated for 90 mins by LC/MS analysis
Type: ADME, cell-based, Canis lupus familiaris
Conditions: dog

With [O-][n+]1c(-c2ccc(Br)cc2)nc2ccc(Br)cn21 the Papp at 1.5 h, 50 µM was 1.43 ×10⁻⁶ cm/s.

Test system: not listed separately
Experiment: Efflux ratio of apparent permeability in MDCK cells
Type: ADME, cell-based, Canis lupus familiaris
Conditions: dog

[O-][n+]1c(-c2ccc(Br)cc2)nc2ccc(Br)cn21 showed an efflux ratio of 6.2.

Test system: not listed separately
Experiment: Solubility of the compound incubated for 48 hrs under shaking condition by LC/MS analysis
Type: physicochemical
Conditions: not given

Compound [O-][n+]1c(-c2ccc(Br)cc2)nc2ccc(Br)cn21 has a solubility thermodynamic at 48 h of 2.24 µg/mL (≈ 6.07 µM).

Test system: not listed separately
Experiment: n-Octanol/water partition coefficient, logD of the compound at 1 mg incubated for 48 hrs under shaking condition by LC/MS analysis
Type: physicochemical
Conditions: not given

Work on [O-][n+]1c(-c2ccc(Br)cc2)nc2ccc(Br)cn21 yielded a logD at 48 h of 2.59.

Test system: not listed separately
Experiment: Induction of apoptosis in human CD4+ve Th cells
Type: toxicity, cell-based
Conditions: not given

Compound CC(C)c1c(O)cc(/C=C/c2ccccc2)cc1O [TAPINAROF] has an IC50 of 5.2 µM.
